Source: US10267737B2, “Near-infrared fluorescent probe for detecting alkaline phosphatase and manufacturing method thereof” (KOREA RESEARCH INSTITUTE OF BIOSCIENCE AND BIOTECHNOLOGY, priority 2016, dated 2019)

Experiments:
ALP [1] = test: Evaluation of sensitivity for ALP with ALP inhibitor p-BTO pre-treatment; type: biochemical; settings: for sensitivity for ALP: with and without p-BTO pre-treatment
Description: After pre-treating with the ALP inhibitor p-BTO (p-bromotetramisole oxalate) at 1-2.5 mM, the fluorescent probe was mixed with ALP.

ALP [2] = test: Evaluation of selective ALP detection; type: biochemical; settings: versus BSA, trypsin, lysozyme, AcHE, GOx, uricase, thrombin
Description: ALP, BSA, trypsin, lysozyme, acetylcholinesterase (AcHE), glucose oxidase (GOx), uricase and thrombin were used for the evaluation.

[3] = Affinity for calcium salts, NIR fluorescence imaging; type: binding; settings: PBS buffer
Description: The affinity of the NIR-Phos-1 and NIR-Phos-2 fluorescent probes for a calcium salt-containing scaffold was evaluated. As the scaffold, calcium carbonate (CC), calcium phosphate (CP), hydroxyapatite (HA), calcium perchlorate (CPC), calcium chloride (CCH) and calcium nitrate (CN) were used. The fluorescent probe and the scaffold were immersed in a PBS buffer and subjected to NIR fluorescence imaging.

[4] = Affinity for scaffold, light absorption of probe solution after adsorption; type: binding; settings: CDHA scaffold
[5] = Fluorescence stability (photostability) test; type: physicochemical; settings: 685 nm light, 150-W xenon lamp, 1 hour, Tris-HCl 10 mM, pH 7.4
Description: The photostability of a fluorescent probe is important for in-vitro and in-vivo fluorescence detection. Therefore, the photostability of the NIR-Phos-1 and NIR-Phos-2 fluorescent probes was evaluated by irradiating light at 685 nm from a 150-W xenon lamp for 1 hour in a Tris-HCl buffer (10 mM, pH 7.4) and measuring the change in fluorescence intensity.

ALP [6] = test: Fluorescence response depending on ALP concentration; type: biochemical; settings: for new absorption peak in the presence of ALP: probe 5 μM, ALP 0.1 UmL^−1, Tris-HCl 10 mM, pH 7.4; for fluorescence due to dephosphorylation of ALP: λex=685 nm
Description: Reactivity depending on ALP concentration was evaluated for the NIR-Phos-1 and NIR-Phos-2 fluorescent probes. After dissolving the fluorescent probe (5 μM) in a Tri-HCl buffer (10 mM, pH 7.4), the fluorescence spectrum occurring as a result of reaction with ALP (0.1 UmL^−1) was investigated.
From FIG. 5B and FIG. 5D, it can be seen that fluorescence spectra are changed variously by adding a Tris-HCl buffer (10 mM, pH 7.4) to ALP (10^−5 to 1.0 UmL^−1) of various concentrations.

[7] = Affinity for scaffold, light absorption of probe solution after adsorption; type: binding; settings: CDHA/DCPD scaffold

Row | SMILES | sensitivity for ALP (ALP [1]) | selective detection of ALP (ALP [2]) | affinity for hydroxyapatite (HA) particles compared to calcium salts CC, CP, CPC, CCH, CN [3] | decrease of light absorption by the probe solution after adsorption [4] [%] | photostability (change in fluorescence intensity) [5] | new absorption peak in the presence of ALP (ALP [6]) [nm] | fluorescence due to dephosphorylation of ALP (ALP [6]) [nm] | decrease of light absorption by the probe solution after adsorption [7] [%] | hydrolysis of the fluorescent probe and ALP (ALP [1]; p-BTO 1-2.5 mM pre-treatment, fluorescence intensity decreased gradually as p-BTO concentration increased)
1 | CC[N+]1=C(/C=C/C2=C3Oc4cc(OCc5ccc(OP(=O)(O)O)cc5)ccc4C=C3CCC2)C(C)(C)c2cc(S(=O)(=O)[O-])ccc21 [NIR-Phos-1, (E)-1-ethyl-3,3-dimethyl-2-(2-(6-((4-(phosphonooxy)benzyl)oxy)-2,3-dihydro-1H-xanthen-4-yl)vinyl)-3H-indol-1-ium-5-sulfonate] | good sensitivity | selectively detect ALP only | higher affinity | 29.4 | superior photostability | 710 | 710 | 3.8 | –
2 | CC[N+]1=C(/C=C/C2=C3Oc4cc(OP(=O)(O)O)ccc4C=C3CCC2)C(C)(C)c2cc(S(=O)(=O)[O-])ccc21 [NIR-Phos-2, (E)-1-ethyl-3,3-dimethyl-2-(2-(6-(phosphonooxy)-2,3-dihydro-1H-xanthen-4-yl)vinyl)-3H-indol-1-ium-5-sulfonate] | good sensitivity | selectively detect ALP only | higher affinity | – | superior photostability | 710 | 710 | – | –
3 | Brc1ccc(C2CN3CCSC3=N2)cc1.O=C(O)C(=O)O (stereo not drawn) [p-BTO, p-bromotetramisole oxalate, reference compound] | – | – | – | – | – | – | – | – | inhibited
